Earlier results on one compound are cited in article PMC13379419, “Integrating high-fidelity hiPSC-cardiomyocytes with AI-driven modeling for enhanced proarrhythmic risk assessment” (Archives of Toxicology, 2026).

Molecules are shown by their SMILES.

On the set-up of this data set: method as in none printed. Particulars: clinical maximum plasma concentration.

Consider `C=C[C@H]1C[N@@]2CC[C@H]1C[C@@H]2[C@@H](O)c1ccnc2ccc(OC)cc12` [Quinidine], for which the Cmax was 3000 nM.
